In test [1] the test system is vessel development of the FLK1-GFP transgenic danio rerio. The experiment in a line: Inhibition test on vascular development of Danio rerio. It is filed as in vivo. To be noted: for inhibition at 0.1 µM / inhibition at 1 µM / inhibition at 5 µM / inhibition at 10 µM / inhibition at 20 µM / inhibition at 40 µM / inhibition at 100 µM: Danio rerio, after 24 hours, n = 5, read-out: inhibition rate on the development of vertebral vessel; for inhibition at 0.1 µM: 100 nM; for inhibition effect on the vessel development of the danio rerio (in words): Table 1 and FIG. 7. Here is the method: Female fish can spawn 200-300 […], and the fertilization and embryonic development processes are conducted in vitro. They can grow up within 24 hours, and the embryo is transparent, which is suitable for observing the change of intracorporal organs and tissues. These characteristics make the danio rerio become to be one of the five fish laboratory animals accepted by the international organization for standardization. Currently, the danio rerio is widely used in human disease studies, especially used in cardiovascular system studies. The danio rerio can be used for screening the influence of small molecular compounds on angiogenesis. Experimental Method: This experiment uses FLK1-GFP transgenic danio rerio as an animal model which is generally used for screening the influence of compounds on angiogenesis. Vessel can be in vivo observed under fluorescence microscope (Suk-Won Jin, 2005, Development). The selected embryo of the postnatal FLK1-GFP transgenic danio rerio was placed into a culture dish and incubated for 3-5 days in an incubator at 28° C. […] Examine the developmental condition of the vertebral vessel after 24 hours and take photo by use of the fluorescence microscope.

The target of a further test is T1, VEGFR2 (Homo sapiens, UniProt P35968).
T1 construct: endogenous in cells; host or cells: primary HUVECs P3-P5
T1 sequence (P35968 20-1356): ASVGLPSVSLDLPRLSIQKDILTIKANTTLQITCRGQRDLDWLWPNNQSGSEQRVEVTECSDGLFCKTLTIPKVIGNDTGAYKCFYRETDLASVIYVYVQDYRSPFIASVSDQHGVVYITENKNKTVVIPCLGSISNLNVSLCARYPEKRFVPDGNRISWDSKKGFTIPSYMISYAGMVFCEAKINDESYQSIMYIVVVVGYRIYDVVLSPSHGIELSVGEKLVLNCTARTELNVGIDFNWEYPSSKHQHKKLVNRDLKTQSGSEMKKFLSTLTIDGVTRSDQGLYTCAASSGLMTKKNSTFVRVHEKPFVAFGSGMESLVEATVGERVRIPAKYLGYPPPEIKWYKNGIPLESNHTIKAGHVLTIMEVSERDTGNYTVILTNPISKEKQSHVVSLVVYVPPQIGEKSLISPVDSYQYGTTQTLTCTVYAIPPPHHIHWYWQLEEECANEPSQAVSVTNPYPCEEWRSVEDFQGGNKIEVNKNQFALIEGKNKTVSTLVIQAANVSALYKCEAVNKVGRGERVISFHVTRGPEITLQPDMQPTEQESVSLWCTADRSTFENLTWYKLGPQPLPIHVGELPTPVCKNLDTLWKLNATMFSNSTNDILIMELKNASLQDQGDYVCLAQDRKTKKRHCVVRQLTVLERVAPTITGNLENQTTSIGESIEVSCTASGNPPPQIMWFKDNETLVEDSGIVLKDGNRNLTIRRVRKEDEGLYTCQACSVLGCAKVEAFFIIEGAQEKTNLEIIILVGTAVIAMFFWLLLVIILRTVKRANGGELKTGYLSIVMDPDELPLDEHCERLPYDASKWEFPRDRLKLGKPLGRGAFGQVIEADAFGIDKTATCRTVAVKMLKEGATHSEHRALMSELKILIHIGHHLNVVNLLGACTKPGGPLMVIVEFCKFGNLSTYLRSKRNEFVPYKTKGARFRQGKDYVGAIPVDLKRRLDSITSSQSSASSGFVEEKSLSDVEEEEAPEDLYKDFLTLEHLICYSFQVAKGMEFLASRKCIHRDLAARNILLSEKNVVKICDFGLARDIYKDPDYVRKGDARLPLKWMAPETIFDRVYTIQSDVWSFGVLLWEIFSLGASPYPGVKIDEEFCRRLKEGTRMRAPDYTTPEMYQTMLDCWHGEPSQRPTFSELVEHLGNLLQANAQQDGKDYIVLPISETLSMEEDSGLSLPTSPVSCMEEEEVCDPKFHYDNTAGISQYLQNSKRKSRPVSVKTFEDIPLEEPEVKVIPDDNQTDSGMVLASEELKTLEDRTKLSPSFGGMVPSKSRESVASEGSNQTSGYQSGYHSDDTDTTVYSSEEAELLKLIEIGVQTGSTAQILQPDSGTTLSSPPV
The experiment in a line: In vitro inhibition test on VEGFR2 in HUVECs (anti-phosphorylated VEGFR2 blot). It is filed as cell-based. To be noted: 10 nM, 100 nM and 1 μM, 50 ng/ml VEGF. Here is the method: The experimental method of detecting the inhibition of the compounds of the present invention on VEGFR2 kinase is as follows:
1) The primary cultured human umbilical vein endothelial cells (HUVECs) P3-P5 were transferred to 6 well plate, 2×10^5 cells per well;
2) compounds 2-1, 2-2 and 2-4 of the present invention (the concentrations are 10 nM, 100 nM and 1 μM for each compound) were added when the cells grow to 70-80%, VEGF was a control, incubation for 30 min;
3) 50 ng/ml VEGF (cell Signaling company, US) was added, stimulating for 10 min;
4) nondenature lysis buffer was added to terminate the reaction, and cell lysis buffer was collected to carry out protein quantification;
5) SDS-PAGE electrophoresis, transfer to nitrocellulose membrane, the membrane was cut off and sealed in phosphate tween buffer, TTBS buffer (Tris-buffered saline 0.01% Tween 20, cell Signaling company, US, PH8.0) formulated from 5% skimmed milk for 2 hours; 6) wash the membrane, seal at 4° C. overnight by use of an anti-phosphorylated VEGFR2 antibody (1:1000 dilution, cell Signaling company, US); 7) on the second day after washing membrane, horse radish peroxidase marked goat anti-rabbit second antibody (cell Signaling company, US) was incubated with the membrane at room temperature for 1 hour; 8) develop with chemiluminescence kit (Millipore company) after washing membrane, and take photos.

SMILES strings stand for the structures.

One may read the inhibition as the change of the read-out against control, counted positive when it falls. Regarding `O=C(Nc1cccc(C(F)(F)F)c1)c1cccc2nc(Oc3ncnc4c3CNC4)ccc12` [Compound 2-5], in test [1], the inhibition at 0.1 µM stood at 0%, the inhibition at 1 µM is 0%, the inhibition at 5 µM was 10% and the inhibition at 10 µM worked out at 40%. In addition, in test [1], the inhibition at 20 µM was found to be 80%, the inhibition at 40 µM stood at 100%, the inhibition at 100 µM was found to be 100% and the “inhibition effect on the vessel development of the danio rerio (in words)” value (“inhibition effect” for short) is recorded as “have inhibition effect on the vessel development of the danio rerio”.

As to `O=C(Nc1cccc(C(F)(F)F)c1)c1cccc2nc(Oc3ncnc4c3CCNC4)ccc12` [Compound 2-3], in test [1], the inhibition at 0.1 µM is 0%, the inhibition at 1 µM came out at 0%, the inhibition at 5 µM came to 0% and the inhibition at 10 µM was 0%. Also, in test [1], the inhibition at 20 µM stood at 0%, the inhibition at 40 µM worked out at 5%, the inhibition at 100 µM came out at 20% and the “inhibition effect” value is “have inhibition effect on the vessel development of the danio rerio”.

As for `CNCc1cc(Oc2ccc3c(C(=O)Nc4cccc(C(F)(F)F)c4)cccc3n2)ncn1` [Compound 2-4], the “inhibition of VEGFR2 (in words, FIG. 8)” value at VEGFR2 is on record as “can inhibit VEGFR2”. In test [1], the inhibition at 0.1 µM came to 0%, the inhibition at 1 µM worked out at 0%, the inhibition at 5 µM is 0% and the inhibition at 10 µM was 0%. For the same compound, in test [1], the inhibition at 20 µM came to 5%, the inhibition at 40 µM was determined as 25%, the inhibition at 100 µM is 70% and the “inhibition effect” value is on record as “have inhibition effect on the vessel development of the danio rerio”.

Turning to `Cc1ccc(Nc2nccc(N(C)c3ccc4c(C)n(C)nc4c3)n2)cc1S(N)(=O)=O` [Compound 130B, Pazopanib, reference compound], in test [1], the inhibition at 0.1 µM was found to be 0%, the inhibition at 1 µM amounted to 0%, the inhibition at 5 µM was determined as 85% and the inhibition at 10 µM stood at 90%. Further, in test [1], the inhibition at 20 µM is 95%, the inhibition at 40 µM is 95% and the inhibition at 100 µM is 100%.

The values above are taken from patent US9540381B2, “Anti-angiogenesis compound, intermediate and use thereof” (Guangzhou KangRui Biological Pharmaceutical Technology Co., …, priority 2013, dated 2017).
